PMC12410356 (International Journal for Parasitology: Drugs and Drug …, 2025)
“And” between values parts separate entries of the source, which are not always exact repeats. Identical values can stand only once.

Legend:
[1] = test system: E. multilocularis metacestode vesicles; experiment: Phosphoglucose isomerase (PGI) release assay (damage-marker release) on metacestode vesicles; type: cell-based, Echinococcus multilocularis; details: 10 μM; for PGI d5 (relative PGI release): 5 days; for PGI d12 (relative PGI release): 12 days
Procedure: In order to quantify the drug-induced damage on whole metacestode vesicles, phosphoglucose isomerase (PGI) assay was performed as described previously ([Stadelmann et al., 2010]) with few adaptations published recently ([Kaethner et al., 2023]). In short, 8 to 12 weeks-old metacestode vesicles were purified using 2 % sucrose with subsequent washes in PBS. Metacestode vesicles were diluted in two volumes of DMEM without phenol red containing penicillin (100 U/mL) and streptomycin (100 μg/mL). […] 0.1 % DMSO was used as a negative solvent control and 0.1 % Triton X-100 was used as a positive total damage control. Metacestode vesicles were incubated under a humid, 5 % CO2 atmosphere at 37 °C. After five and twelve days, supernatant was taken and pictures were made using a Nikon SMZ18 stereo microscope (Nikon, Basel, Switzerland) at 7.5 × magnification. PGI activity in the supernatants was measured on a HIDEX Sense microplate reader (Hidex, Turku, Finland). The corresponding values of the DMSO controls were subtracted from the values of the compounds and then PGI activity was calculated relative to 0.1 % Triton X-100. […] IC50 values were calculated applying the 3 parameter Weibull type 1 in R for each of the three independent experiments ([Ritler et al., 2020]).

[2] = test system: E. multilocularis metacestode vesicles; experiment: Metacestode vesicle viability assay (ATP, CellTiter-Glo); type: cell-based, Echinococcus multilocularis
Procedure: Viability was assessed after 12 days using the same metacestode vesicles as for the PGI release assay. Triton X-100 was added to each well to a final concentration of 0.1 %. Subsequently the metacestode vesicles were broken mechanically and 50 μL of the supernatant was mixed with 50 μL of CellTiter-Glo® buffer (Promega, Dübendorf, Switzerland). Measurements were performed on a HIDEX Sense microplate reader.

[3] = overview screen, singlets, relative to 0.1 % Triton X-100, DMSO subtracted
[4] = overview screen, 10 μM, singlets, 12 days, relative to DMSO control
[5] = confirmation screen, triplicates, mean

Structure (SMILES) | PGI d5 (relative PGI release) [1, 3] | PGI d12 (relative PGI release) [1, 3] [%] | Viability d12 (relative viability) [2, 4] [%] | Viability d12 (relative viability) ([2]; 10 µM) [%] | PGI d5 (relative PGI release) [1, 5] [%] | PGI d12 (relative PGI release) [1, 5] [%] | Viability d12 (relative viability) ([2]; confirmation screen, 10 μM, triplicates, mean, 12 days) [%]
C=CCc1cc(Cc2cnc(N)nc2N)cc(OC)c1O [MMV1580849] | 24.5% and 24.5063% | -6.332 | 47.2094 | – | – | – | –
CN(C)CCCNC(=O)c1ccc(-c2cc(O)c3ncccc3c2)cc1 [MMV1580488] | -1.606% | -1.51 | 174.002 | – | – | – | –
Cn1cncc1[C@@](N)(c1ccc(Cl)cc1)c1ccc2c(c1)c(-c1cccc(Cl)c1)cc(=O)n2C [MMV658803] | 0.7883% | -2.529 | 92.252 | – | – | – | –
CSc1ccc2c(c1)C(N1CCN(C)CC1)Cc1ccccc1S2 (stereo not drawn) [MMV002505] | 0.4968% | -0.02837 | 82.0463 | – | – | – | –
COc1ccc(CNC(=O)C(NS(=O)(=O)c2ccc3nc(C)sc3c2)C(C)C)cc1 (stereo not drawn) [MMV303733] | -2.8306% | -9.3435 | 97.8993 | – | – | – | –
COc1ccc(SCC(=O)N2c3ccccc3Sc3ccccc32)cc1 [MMV1578573] | -3.455% | -10.5042 | 50.7662 | – | – | – | –
COc1ccc(NC(=O)CC2Sc3ncnn3C2=O)cc1 (stereo not drawn) [MMV1483032] | 0.1451% | -11.504 | 68.4676 | – | – | – | –
O=C(Nc1ccc(F)cc1)c1nn(-c2ccccc2)c(=O)cc1Cl [MMV1578555] | 4.414% | 31.7823 | 71.8821 | – | – | – | –
O=C(N[C@H](CCS)C(=O)N[C@H](Cc1ccccc1)C(=O)O)c1cc2ccccc2[nH]1 [MMV1581557] | -0.9852% | -10.8141 | 26.3851 | – | – | – | –
Clc1ccc(Cn2c(CN3CCCC3)nc3ccccc32)cc1 [MMV002015] | -0.9034% | -18.1648 | – | 85.4319 | – | – | –
CC(C)Cn1c(=O)n(C)c(=O)c2c(-c3cncn3C)n(Cc3cccc4ccccc34)nc21 [MMV1581559] | -0.3605% | 37.1265 | 31.7083 | – | – | – | –
Nc1nc(NC2Cc3ccc(F)cc3C2)nc(N2CCCCC2)n1 (stereo not drawn) [MMV1580839] | -3.67% | -6.152 | 110.365 | – | – | – | –
O=[N+]([O-])c1cn(Cc2nc(O)nc(O)c2Br)cn1 [MMV1579777] | -0.845% | -7.383 | 93.1599 | – | – | – | –
O=C(Nc1ccc(Cl)c(C(F)(F)F)c1)C(CCCl)C(=O)Nc1ccc(Cl)c(C(F)(F)F)c1 [MMV1580840] | 14.7528% | 31.1069 | 11.8566 | – | -0.17 | 0.36 | 81.80
CC(C)CCN1C(=O)C(C2=NS(=O)(=O)c3cc(NS(C)(=O)=O)ccc3N2)=C(O)[C@@H]2[C@H]3CC[C@H](C3)[C@@H]21 [MMV1782220] | 0.5402% | 0.853 | 132.239 | – | – | – | –
CCc1nc(N)nc(N)c1C#CCc1ccccc1 [MMV1581549] | -0.3014% | -5.576 | 82.8379 | – | – | – | –
COc1ccc(CNC(=O)C2CCN(C(C)c3cccc4ccccc34)CC2)cc1 (stereo not drawn) [MMV1634397] | 1.669% | -0.9153 | 68.3168 | – | – | – | –
CCCCCCCc1[nH]c2ccccc2c(=O)c1O [MMV1578561] | -1.205% | -12.6441 | 124.494 | – | – | – | –
Nc1c(C(=O)NCc2ccco2)c2nc3ccccc3nc2n1CCN1CCCCC1 [MMV099714] | 2.984% | 44.8288 | 63.8129 | – | – | – | –
OCCCCn1cnc2c(O)nc(NCc3ccc(Cl)c(Cl)c3)nc21 [MMV1593542] | -1.805% | -12.5973 | 68.6346 | – | – | – | –
